Source: ChEMBL document CHEMBL3632495, “Discovery of 1,1'-Biphenyl-4-sulfonamides as a New Class of Potent and Selective Carbonic Anhydrase XIV Inhibitors” (J Med Chem, 2015)

Tests used:
Carbonic anhydrase 1 = Carbonic anhydrase 1 (Homo sapiens, UniProt P00915)
Description: Inhibition of human carbonic anhydrase-1 assessed as CO2 hydration activity by stopped-flow method

Carbonic anhydrase 12 = Carbonic anhydrase 12 (Homo sapiens, UniProt O43570)
Description: Inhibition of human carbonic anhydrase-12 assessed as CO2 hydration activity by stopped-flow method

Carbonic anhydrase 9 = Carbonic anhydrase 9 (Homo sapiens, UniProt Q16790)
Description: Inhibition of human carbonic anhydrase-9 assessed as CO2 hydration activity by stopped-flow method

Carbonic anhydrase 2 = Carbonic anhydrase 2 (Homo sapiens, UniProt P00918)
Description: Inhibition of human carbonic anhydrase-2 assessed as CO2 hydration activity by stopped-flow method

Carbonic anhydrase 1, sequence (P00915 whole entry): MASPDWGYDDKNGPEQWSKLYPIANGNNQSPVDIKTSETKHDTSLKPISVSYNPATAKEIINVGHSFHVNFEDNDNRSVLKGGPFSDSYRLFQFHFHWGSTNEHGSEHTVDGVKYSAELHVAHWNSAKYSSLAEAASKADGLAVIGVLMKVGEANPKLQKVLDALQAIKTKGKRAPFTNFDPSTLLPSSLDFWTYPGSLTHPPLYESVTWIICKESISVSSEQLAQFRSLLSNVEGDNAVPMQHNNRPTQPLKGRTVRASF
Carbonic anhydrase 12, sequence (O43570 whole entry): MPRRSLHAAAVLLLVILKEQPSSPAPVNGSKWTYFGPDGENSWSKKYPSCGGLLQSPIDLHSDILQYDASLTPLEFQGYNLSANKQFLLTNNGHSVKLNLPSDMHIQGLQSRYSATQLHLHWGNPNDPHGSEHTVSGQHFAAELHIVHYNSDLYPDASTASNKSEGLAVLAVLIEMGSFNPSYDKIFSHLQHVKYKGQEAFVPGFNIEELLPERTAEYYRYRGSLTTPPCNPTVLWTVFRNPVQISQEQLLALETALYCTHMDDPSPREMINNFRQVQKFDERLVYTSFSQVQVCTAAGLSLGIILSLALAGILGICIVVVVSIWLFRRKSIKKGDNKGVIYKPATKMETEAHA

| Compound | Ki (Carbonic anhydrase 1) [nM] | Ki (Carbonic anhydrase 12) [nM] | Ki (Carbonic anhydrase 9) [nM] | Ki (Carbonic anhydrase 2) [nM] |
| --- | --- | --- | --- | --- |
| COC(=O)c1ccc(-c2ccc(S(N)(=O)=O)cc2)cc1 | 77 | 35.2 | 9.3 | 9 |
| CC(C)(C)OC(=O)c1ccc(-c2ccc(S(N)(=O)=O)cc2)cc1 | 78.8 | 44.9 | – | 42 |
| NS(=O)(=O)c1ccc(-c2ccc(C(=O)NCCO)cc2)cc1 | 46.7 | 26.2 | – | 11.5 |
| NS(=O)(=O)c1ccc(-c2ccc([N+](=O)[O-])cc2)cc1 | 62.2 | 7.4 | 9.6 | 11.6 |
| Nc1ccc(-c2ccc(S(N)(=O)=O)cc2)cc1 | 78.5 | 7.7 | – | 9.1 |
| NS(=O)(=O)c1ccc(-c2ccc(Cc3ccccc3)cc2)cc1 | 75.3 | 77.2 | 519 | 454 |
| COC(=O)c1ccc(C(=O)c2ccc(-c3ccc(S(N)(=O)=O)cc3)cc2)cc1 | 73.8 | 7.3 | 42.3 | 7.8 |
| COC(=O)c1ccc(C(O)c2ccc(-c3ccc(S(N)(=O)=O)cc3)cc2)cc1 (stereo unspecified) | 6.3 | 6.7 | – | 6.6 |
| COC(=O)c1ccc(Cc2ccc(-c3ccc(S(N)(=O)=O)cc3)cc2)cc1 | 122 | 237 | 76.7 | 50.6 |
| NS(=O)(=O)c1ccc(-c2ccc(C(O)c3ccc(C(=O)O)cc3)cc2)cc1 (stereo unspecified) | 72.5 | 93.9 | 450 | 814 |
| NS(=O)(=O)c1ccc(-c2ccc(Cc3ccc(C(=O)O)cc3)cc2)cc1 | 236 | – | 31.4 | 6.9 |
| NS(=O)(=O)c1ccc(-c2ccc(C(=O)c3ccc([N+](=O)[O-])cc3)cc2)cc1 | 80.1 | 70.6 | – | 63.3 |
| NS(=O)(=O)c1ccc(-c2ccc(Cc3ccc([N+](=O)[O-])cc3)cc2)cc1 | 70.5 | 9.3 | 705 | 39.7 |

Stronger by Ki (Carbonic anhydrase 2), values ahead:

| Ki (Carbonic anhydrase 1) [nM] | Ki (Carbonic anhydrase 12) [nM] | Ki (Carbonic anhydrase 9) [nM] | Ki (Carbonic anhydrase 2) [nM] | Compound |
| --- | --- | --- | --- | --- |
| 340 | 52.3 | 3.6 | 6.2 | NS(=O)(=O)c1ccc(-c2ccc(C(=O)O)cc2)cc1 |
| 67.5 | 8.3 | 823 | 5.3 | NC(=O)c1ccc(-c2ccc(S(N)(=O)=O)cc2)cc1 |
| 1630 | 7.4 | – | 4.3 | NS(=O)(=O)c1ccc(-c2ccc(C(=O)c3ccccc3)cc2)cc1 |
| 52.7 | 81.1 | 8.9 | 4.9 | NS(=O)(=O)c1ccc(-c2ccc(C(O)c3ccccc3)cc2)cc1 (stereo unspecified) |
| 263 | 45.5 | 8.5 | 4.8 | NS(=O)(=O)c1ccc(-c2ccc(C(=O)c3ccc(C(=O)O)cc3)cc2)cc1 |
| – | – | 678 | 5.9 | NS(=O)(=O)c1ccc(-c2ccc(C(O)c3ccc([N+](=O)[O-])cc3)cc2)cc1 (stereo unspecified) |
| 589 | 8.1 | 6 | 5.2 | Nc1ccc(Cc2ccc(-c3ccc(S(N)(=O)=O)cc3)cc2)cc1 |
